The source made the active and inactive calls.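 Rule for the calls: active = IC50 at or below 20 µM in the dose response confirmation; inactive = the rest.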
target: Low molecular weight phosphotyrosine protein phosphatase (Homo sapiens) (UniProt P24666); assay: inhibition of human LMPTP-A enzyme – biochemical, fluorescence intensity, SAR follow-up (AID 686962); details: recombinant LMPTP-A, OMFP fluorogenic substrate, 50 min
Sequence (P24666 whole entry, looked up): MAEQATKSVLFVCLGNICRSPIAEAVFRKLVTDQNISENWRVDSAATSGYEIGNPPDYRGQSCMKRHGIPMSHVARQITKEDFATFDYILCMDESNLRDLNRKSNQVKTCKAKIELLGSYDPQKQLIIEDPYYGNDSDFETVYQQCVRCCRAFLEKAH

| IC50 | Structure (SMILES) |
| --- | --- |
| 11.5 µM | Nc1nc(N)c(Cc2ccc(Cl)cc2Cl)c(N)n1 |
| 10.2 µM | Clc1cccc(Cl)c1Cn1cnc(=NCc2ccco2)c2[nH]cnc21 |
| 11.1 µM | c1ccc(-c2cc(N3CCCCC3)c3ccccc3n2)cc1 |
| 7.41 µM | Cc1c(CCC(=O)O)c(=O)oc2c(C)c(OCc3ccccc3Cl)ccc12 |
| 10.6 µM | Fc1ccccc1-c1nc(NC2CCCC2)c2ccccc2n1 |
| > 80 µM (inactive) | COc1ccccc1CNc1ncnc2ccsc12 |
| 17.8 µM | c1ccc(-c2nc(NCCCn3ccnc3)c3ccccc3n2)cc1 |
| 13.5 µM | Cc1cccc(-c2nc(NCCCN3CCOCC3)c3ccccc3n2)c1 |
| 12.9 µM | Cc1ccc(-c2nc(NCc3cccnc3)c3ccccc3n2)cc1 |
| inactive | O=C(OCCNc1nc(-c2ccccc2)nc2ccccc12)c1ccncc1 |
| 18.8 µM | Cc1ccc(-c2nc(NCCN3CCOCC3)c3ccccc3n2)cc1 |
| inactive | O=C(OCCNc1nc(-c2ccccc2)nc2ccccc12)c1cccnc1 |
| inactive | Fc1ccccc1-c1nc(NCCCN2CCOCC2)c2ccccc2n1 |
| 18.1 µM | CC(C)OCCCNc1nc(-c2ccccc2)nc2ccccc12 |
| 14.7 µM | CCc1nc(N)nc(N)c1-c1ccc(Cl)cc1 |
| 2.86 µM | c1ccc(-c2cc(NCCN3CCCCC3)c3ccccc3n2)cc1 |
| 19 µM | c1ccc(-c2nc(NCc3cccnc3)c3ccccc3n2)cc1 |
